Measured values as given in PubChem BioAssay (NCI).
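Results reflect a 48-hour exposure of cells in 96-well plates to compound at five concentrations. GI50 is the concentration that inhibits growth by half. TGI: total growth inhibition.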

Tests used:
Assay in all cases: NCI-60 cell line screen, 48 h
[1] = test system: NCI-H460 lung
[2] = test system: NCI-H522 lung
[3] = test system: NCI/ADR-RES ovarian
[4] = test system: OVCAR-3 ovarian
[5] = test system: OVCAR-4 ovarian
[6] = test system: OVCAR-5 ovarian
[7] = test system: OVCAR-8 ovarian
[8] = test system: PC-3 prostate
[9] = test system: RPMI-8226 leukemia
[10] = test system: RXF 393 renal
[11] = test system: SF-268 CNS
[12] = test system: SF-295 CNS
[13] = test system: SF-539 CNS
[14] = test system: SK-MEL-2 melanoma
[15] = test system: SK-MEL-28 melanoma
[16] = test system: SK-MEL-5 melanoma
[17] = test system: SK-OV-3 ovarian
[18] = test system: SN12C renal
[19] = test system: SNB-19 CNS
[20] = test system: SNB-75 CNS
[21] = test system: SR leukemia
[22] = test system: SW-620 colon
[23] = test system: TK-10 renal
[24] = test system: U251 CNS
[25] = test system: UACC-62 melanoma
[26] = test system: UO-31 renal

SMILES: Nc1cc(N)c2nc(-c3ccccc3)c(Sc3ccc(F)cc3)nc2c1
- GI50 [1]: 21.7 µM
- TGI [1]: 65.8 µM
- GI50 [2]: > 100 µM
- TGI [2]: > 100 µM
- GI50 [3]: 16.6 µM
- TGI [3]: 34.7 µM
- GI50 [4]: 16.3 µM
- TGI [4]: 33.6 µM
- GI50 [5]: 22.9 µM
- TGI [5]: 55.9 µM
- GI50 [6]: 19 µM
- TGI [6]: 46.1 µM
- GI50 [7]: 16.7 µM
- TGI [7]: 34.9 µM
- GI50 [8]: 29.4 µM
- TGI [8]: > 100 µM
- GI50 [9]: 28.3 µM
- TGI [9]: 81.5 µM
- GI50 [10]: 13.3 µM
- TGI [10]: 29.3 µM
- GI50 [11]: 17.6 µM
- TGI [11]: 38.9 µM
- GI50 [12]: 13.9 µM
- TGI [12]: 29.9 µM
- GI50 [13]: 21.3 µM
- TGI [13]: 40 µM
- GI50 [14]: 38.4 µM
- TGI [14]: > 100 µM
- GI50 [15]: 23.4 µM
- TGI [15]: 53.4 µM
- GI50 [16]: 15.6 µM
- TGI [16]: 33.4 µM
- GI50 [17]: 15.7 µM
- TGI [17]: 31.6 µM
- GI50 [18]: 17.6 µM
- TGI [18]: 35.4 µM
- GI50 [19]: 20 µM
- TGI [19]: 41.7 µM
- GI50 [20]: 21.1 µM
- TGI [20]: 47.8 µM
- GI50 [21]: 35.2 µM
- TGI [21]: > 100 µM
- GI50 [22]: 22.8 µM
- TGI [22]: 49.6 µM
- GI50 [23]: 17.4 µM
- TGI [23]: 42.6 µM
- GI50 [24]: 16.4 µM
- TGI [24]: 31.7 µM
- GI50 [25]: 16.7 µM
- TGI [25]: 31.8 µM
- GI50 [26]: 32 µM
- TGI [26]: > 100 µM
